Data from patent US20100137294A1, “COMPOUNDS, COMPOSITIONS AND METHODS FOR CONTROLLING INVERTEBRATE PESTS” (GENETIC TECHNOLOGIES LIMITED, priority 2006, published 2010).

Tested on: T. vitrinus L3 larvae
Assay: Testing of compounds on T. vitrinus L3 larvae (96-well microplate larval kill assay)
Type: cell-based, Trichostrongylus vitrinus
Details: primary screening, 5 mM compound, 5% DMSO, overnight RT
Experimental: The ability of the compounds to kill T. vitrinus L3 larvae was tested. The L3 stage is encased in a sheath, which protects the larva from external stresses such as desiccation and chemicals. This makes it more difficult to kill this part of the lifecycle with chemotherapeutic agents. The tests will determine which compounds can kill this lifestage, therefore defining which compounds can penetrate through the sheath and subsequently kill the larva.
The L3 stage of T. vitrinus were collected and stored in water at 4° C. until needed. Each compound was suspended in 100% dimethyl sulphoxide (DMSO) to a final concentration of 100 mM.
Around fifty L3 larvae were added, in 95 μl of water, to the wells of a 96-well microtitre plate. The plate was incubated overnight RT. Plates were viewed under a binocular microscope and the proportion of dead L3 larvae in the controls and each treatment were scored. Concentrations above 5 mM were not tested as DMSO alone kills larvae when the proportion exceeds 5% of the total volume. Many of the compounds are predicted to have limited solubility in aqueous solution, thus requiring the presence of organic solvent. The appropriate controls included wells with and without various concentrations of DMSO alone.
Three compounds ((4), (10) and (20)) could also kill 100% of larvae exposed at 0.5 mM.

| Compound | % of T. vitrinus L3 larvae killed [%] |
| --- | --- |
| O=C(O)C1C(C(=O)NCCN2CCOCC2)[C@H]2CC[C@@H]1O2 (some centres unmarked) [Compound 12, 3-(Ethylmorpholinecarbamoyl)-7-Oxabicyclo(2.2.1)heptane-2-carboxylic acid] | 100 |
| O=C(O)C(Cc1ccc(O)cc1)N1C(=O)C2C(C1=O)[C@H]1CC[C@@H]2O1 (some centres unmarked) [Compound 19] | 100 |
| CCCCCCCCN1C(=O)C2C3CCC(O3)C2C1=O (centres unmarked) [Compound 6, N-octyl-7-Oxabicyclo(2.2.1)heptane-2,3-dicarboximide] | 100 |
| CCCN1C(=O)C2C(C1=O)[C@H]1CC[C@@H]2O1 (some centres unmarked) [Compound 4, N-propyl-7-Oxabicyclo(2.2.1)heptane-2,3-dicarboximide] | 100 |
| CCCCN1C(=O)C2C3CCC(O3)C2C1=O (centres unmarked) [Compound 5, N-butyl-7-Oxabicyclo(2.2.1)heptane-2,3-dicarboximide] | 100 |
| O=C1NC(=O)C2C1[C@@H]1CC[C@H]2O1 (stereo partly drawn) [Compound 20, exo-7-Oxabicyclo(2.2.1)heptane-2,3-dicarboximide] | 100 |
| CCCCCCCCCCN1C(=O)C2C3CCC(O3)C2C1=O (centres unmarked) [Compound 7, N-decyl-7-Oxabicyclo(2.2.1)heptane-2,3-dicarboximide] | 100 |

Same assay, conditions: secondary screening, serial ten-fold dilutions, 0.5 mM

| Compound | % of T. vitrinus L3 larvae killed [%] |
| --- | --- |
| CCCN1C(=O)C2C(C1=O)[C@H]1CC[C@@H]2O1 (some centres unmarked) [Compound 4, N-propyl-7-Oxabicyclo(2.2.1)heptane-2,3-dicarboximide] | 100 |
| O=C1NC(=O)C2C1[C@@H]1CC[C@H]2O1 (stereo partly drawn) [Compound 20, exo-7-Oxabicyclo(2.2.1)heptane-2,3-dicarboximide] | 100 |

Tested on: H. contortus L3 larvae
Assay: Testing compounds on H. contortus L3 larvae (96-well microplate larval kill assay)
Type: cell-based, Haemonchus contortus
Details: secondary screening, sequential ten-fold dilutions of 5 mM down to 0.5
Experimental: The L3 stage of H. contortus was collected from the faeces of experimentally infected sheep and stored in water at room temperature until needed. A stock solution of each compound was prepared by suspending the compound in 100% dimethyl sulphoxide (DMSO) to a final concentration of 100 mM.
For this set of experiments, Trichostrongylus vitrinus (T. vitrinus) L3 larvae were used as positive controls by testing with the compounds identified in previous experiments as being able to kill all larvae. Approximately 50 L3 larvae of each species were added, in 95 μl of water, to the wells of a 96-well microtitre plate. All compounds were tested initially at a concentration of 5 mM by adding 5 μl of inhibitor in 100% DMSO.
The plates were incubated overnight at room temperature (RT). Plates were viewed under a binocular microscope and the compounds showing 100% kill of H. contortus larvae were determined. Concentrations above 5 mM were not tested as DMSO alone kills larvae when the proportion exceeds 5% of the total volume. Many of the compounds are predicted to have limited solubility in aqueous solution, thus requiring the presence of organic solvent. Additional controls included wells with and without various concentrations of DMSO alone.
Eight inhibitors, from the primary screening, appeared to kill 90-100% of H. contortus L3 larvae at a concentration of 5 mM. […]

| Compound | killing of H. contortus L3 larvae across the dilution series |
| --- | --- |
| O=C1C2C(C(=O)N1CCO)[C@H]1CC[C@@H]2O1 (some centres unmarked) [Compound 15, N-Ethyl alcohol-7-Oxabicyclo(2.2.1)heptane-2,3-dicarboximide] | killed the larvae at the highest and lowest concentrations used |

Tested on: not given
Assay: not given
Details: not given

| melting point [°C] | Compound |
| --- | --- |
| 162 to 164 | O=C(O)CCCN1C(=O)C2C(C1=O)[C@H]1CC[C@@H]2O1 (some centres unmarked) [Compound 13, N-Butanoic acid-7-Oxabicyclo(2.2.1)heptane-2,3-dicarboximide] |
| 169 to 171 | O=C1NC(=O)C2C1C1CCC2(N2CCOCC2)O1 (centres unmarked) |
| 83 to 85 | COc1ccc(CC23CCC(O2)C2C(=O)NC(=O)C23)cc1 (centres unmarked) |
| 110 to 112 | O=C(O)CCCCCN1C(=O)C2C(C1=O)[C@H]1CC[C@@H]2O1 (some centres unmarked) [Compound 14, N-Hexanoic acid-7-Oxabicyclo(2.2.1)heptane-2,3-dicarboximide] |
| 207 to 209 | O=C1NC(=O)C2C1C1CCC2(c2ccc([N+](=O)[O-])cc2)O1 (centres unmarked) |
| 45 to 46 | CCCCCCCCCCCCCCC12CCC(O1)C1C(=O)NC(=O)C12 (centres unmarked) |
| 171 to 172 | CCc1ccccc1NC(=O)C1C(C(=O)O)[C@@H]2CC[C@H]1O2 (stereo in doubt) |
| 56 to 57 | O=C1NC(=O)C2C1C1CCC2(CCCCCCO)O1 (centres unmarked) |
| 105 to 107 | CCCCN(C(=O)C1C2CCC(O2)C1C(=O)O)c1ccccc1 (centres unmarked) |
| 35 to 37 | CCCCCCCCCCCCC12CCC(O1)C1C(=O)NC(=O)C12 (centres unmarked) |
| 110 to 111 | CCCCCCCCCCNC(=O)C1C(C(=O)O)[C@@H]2CC[C@H]1O2 (stereo in doubt) |
| 134 to 136 | CC(C)(CO)C12CCC(O1)C1C(=O)NC(=O)C12 (centres unmarked) |
| 161 | Cn1ccc2c(CNC(=O)C3C(C(=O)O)[C@@H]4CC[C@H]3O4)cccc21 (stereo in doubt) [Compound 80, 3-[(1-Methyl-1H-indol-4-yl)methylcarbamoyl]-7-oxabicyclo[2.2.1]heptane-2-carboxylic acid] |
| 44 to 46 | CCC(C)C12CCC(O1)C1C(=O)NC(=O)C12 (centres unmarked) |
| 140 to 142 | O=C(O)C1C(C(=O)N2CCCCC2)[C@H]2CC[C@@H]1O2 (some centres unmarked) |
| 99 to 102 | O=C1C2C(C(=O)N1c1ncccc1OCc1ccccc1)[C@H]1CC[C@@H]2O1 (some centres unmarked) [Compound 77, 3-[3-(Benzyloxy)pyridin-2-yl]-10-oxa-4-azatricyclo[5.2.1]decane-3,5-dione] |
| 166 to 169 | CCC12CCC(O1)C1C(=O)NC(=O)C12 (centres unmarked) |
| 116 to 117 | C=CCC12CCC(O1)C1C(=O)NC(=O)C12 (centres unmarked) |

| melting point [°C] | Compound |
| --- | --- |
| 96 to 97 | COC(CO)CN1C(=O)[C@@H]2[C@H](C1=O)[C@H]1CC[C@@H]2O1 (some centres unmarked) [Compound 16, N-2-Methoxypropyl-1-ol-7-Oxabicyclo(2.2.1)heptane-2,3-dicarboximide] |
| 159 to 160 | O=C(O)C1C(C(=O)NCC2OCCc3sccc32)[C@H]2CC[C@@H]1O2 (some centres unmarked) [Compound 81, 3,[(6,7-Dihydro-4H-thieno[3,2-c]pyran-4-yl)methylcarbamoyl]-7-oxabicyclo[2.2.1]heptane-2-carboxylic acid] |
| 216 to 217 | O=C(O)c1ccc(NC(=O)C2C(C(=O)O)[C@@H]3CC[C@H]2O3)cc1Cl (stereo in doubt) |
| 62 to 64 | CCCCCCCCCCCCCCCCCCC12CCC(O1)C1C(=O)NC(=O)C12 (centres unmarked) |
| 155 to 157 | COc1ccc(CC23CCC(O2)C2C(=O)NC(=O)C23)cc1OC (centres unmarked) |
| 159 to 160 | Nc1ccccc1CC12CCC(O1)C1C(=O)NC(=O)C12 (centres unmarked) |
| 105 to 107 | C=CCNC(=O)C1C(C(=O)O)[C@@H]2CC[C@H]1O2 (stereo in doubt) |
| 145 to 146 | CN(C)CCOc1ccc(N2C(=O)C3C(C2=O)[C@H]2CC[C@@H]3O2)cc1 (some centres unmarked) |
| 113 to 115 | CN(C)CCOc1ccccc1N1C(=O)C2C(C1=O)[C@H]1CC[C@@H]2O1 (some centres unmarked) [Compound 79, 4,{2,[2-(Dimethylamino)ethoxy]phenyl}-10-oxa-4-azatricyclo[5.2.1]decane-3,5-dione] |
| 124 to 125 | O=C(O)C1C(C(=O)NC2CCN(Cc3ccccc3)CC2)[C@H]2CC[C@@H]1O2 (stereo in doubt) |
| 64 to 65 | C=CCCN1C(=O)C2C(C1=O)[C@H]1CC[C@@H]2O1 (some centres unmarked) |
| 131 | CCCCCCCCNC(=O)C1C(C(=O)O)[C@@H]2CC[C@H]1O2 (stereo in doubt) |
| 163 to 164 | CC(C)(C)c1ccccc1NC(=O)C1C(C(=O)O)[C@@H]2CC[C@H]1O2 (some centres unmarked) |
| 104 to 107 | CC(CO)C12CCC(O1)C1C(=O)NC(=O)C12 (centres unmarked) |
| 171 to 172 | O=C1NC(=O)C2C1C1CCC2(c2ccccc2)O1 (centres unmarked) |
| 97 to 99 | O=C1NC(=O)C2C1C1CCC2(C2CCCCC2)O1 (centres unmarked) |
| 164 to 166 | O=C1NC(=O)C2C1C1CCC2(CCCO)O1 (centres unmarked) |
| 125 to 126 | O=C(O)CCCCCCCNC(=O)C1C(C(=O)O)[C@@H]2CC[C@H]1O2 (stereo in doubt) [Compound 18, 3-(7-Carboxyheptylcarbamoyl)-7-oxabicyclo[2.2.1]heptane-2-carboxylic acid] |

| Compound | melting point [°C] |
| --- | --- |
| O=C1C2C(C(=O)N1CCO)[C@H]1CC[C@@H]2O1 (some centres unmarked) [Compound 15, N-Ethyl alcohol-7-Oxabicyclo(2.2.1)heptane-2,3-dicarboximide] | 164 to 166 |
